Measured values taken from US7514555B2, “Compounds for the treatment of metabolic disorders” (Wellstat Therapeutics Corporation, priority 2003, dated 2009).
Entries after “also recorded” stand apart in the source; their conditions may differ.

Tests used:
db/db mice [1] = assay: Antidiabetic effects in db/db mice, daily oral dosing for 2 weeks; assay type: in vivo; conditions: for Glucose / Glucose (% of Control) / Free Fatty Acids ± SEM / Glucose ± SEM / Triglycerides ± SEM: 100 mg/kg daily oral; for Glucose / Glucose (% of Control): 2 weeks; for Glucose (% of Control): relative to vehicle control; for effect on blood glucose (in words) / effect on free fatty acids (in words) / effect on triglycerides (in words): 2 weeks of daily oral dosing; for Free Fatty Acids ± SEM / Glucose ± SEM / Triglycerides ± SEM: plasma serum, 2 weeks (Table IV)
From the text: (§1) Db/db mice have a defect in leptin signaling, leading to hyperphagia, obesity and diabetes. Moreover, unlike ob/ob mice on a C57BL/6J background, db/db mice on a C57BLKS background undergo failure of their insulin-producing pancreatic islet cells, resulting in progression from hyperinsulinemia (associated with peripheral insulin resistance) to hypoinsulinemic diabetes.
(§2) Male obese (db/db homozygote) C57BL/Ksola mice approximately 8 weeks of age, were obtained from Jackson Labs (Bar Harbor, Me.) and randomly assigned into groups of 5-7 animals such that the body weights (40-45 g) and serum glucose levels (≧300 mg/dl in fed state) were similar between groups; male lean (db/+heterozygote) mice served as cohort controls. A minimum of 7 days was allowed for adaptation after arrival. All animals were maintained under controlled temperature (23° C.), relative humidity (50±5%) and light (7:00-19:00), and allowed free access to standard chow (Formulab Diet 5008, Quality Lab Products, Elkridge, Md.) and water.
[…] At the end of the treatment period 100 μl of venous blood was withdrawn in a heparinized capillary tube from the retro-orbital sinus for serum chemistry analysis.
The same procedure as Example 2 was followed.

db/db mice [2] = assay: Antidiabetic effects in db/db mice, daily oral dosing for 4 weeks; assay type: in vivo; conditions: for effect on blood glucose (in words) / effect on free fatty acids (in words) / effect on serum triglycerides (in words): 4 weeks of daily oral dosing; for effect on blood glucose (in words): versus vehicle; for effect on free fatty acids (in words) / effect on serum triglycerides (in words): versus vehicle-treated db/db mice; for Glucose ± SEM: serum glucose; for Glucose ± SEM / Free Fatty Acids ± SEM / Triglycerides ± SEM: 100 mg/kg daily oral, 4 weeks; for Free Fatty Acids ± SEM / Triglycerides ± SEM: serum
From the text: as §1, §2
Treatment cohorts were given daily oral doses of vehicle, Compound BI (100 mg/kg), or Compound CR (100 mg/kg) for 4 weeks. At the end of the treatment period 100 μl of venous blood was withdrawn in a heparinized capillary tube from the retro-orbital sinus for serum chemistry analysis.

| Structure (SMILES) | Glucose (db/db mice [1]) [mg/dL] | Glucose (% of Control) (db/db mice [1]) | effect on blood glucose (in words) (db/db mice [1]) | effect on free fatty acids (in words) (db/db mice [1]) | effect on triglycerides (in words) (db/db mice [1]) | Free Fatty Acids ± SEM (db/db mice [1]) | Glucose ± SEM (db/db mice [1]) | Triglycerides ± SEM (db/db mice [1]) | effect on blood glucose (in words) (db/db mice [2]) | effect on free fatty acids (in words) (db/db mice [2]) | effect on serum triglycerides (in words) (db/db mice [2]) | Glucose ± SEM (db/db mice [2]) [mg/dL] | Free Fatty Acids ± SEM (db/db mice [2]) [µM] | Triglycerides ± SEM (db/db mice [2]) [mg/dL] |
| --- | --- | --- | --- | --- | --- | --- | --- | --- | --- | --- | --- | --- | --- | --- |
| Cc1cccc(C)c1COc1cccc(C(=O)CCC(=O)O)c1 [Compound BI, 4-(3-(2,6-Dimethylbenzyloxy)-phenyl)-4-oxobutanoic acid, reference compound] | 317.4 ± 48.0 | 42 ± 6 % of Control | significant reduction | caused a decrease | markedly reduce | 1070.3 ± 96.4 | 317.4 ± 48.0 | 136.3 ± 18.1 | significant reduction | reduced | reduced | 189 ± 25 | 1387 ± 101 | 125 ± 11 |
| Cc1cccc(C)c1COc1cccc([C@H](O)CCC(=O)O)c1 [Compound CR, 4-(3-(2,6-Dimethylbenzyloxy)-phenyl)-4(R)-hydroxybutanoic acid] | 263.2 ± 59.0 | 35 ± 8 % of Control | significant reduction | not CR caused a decrease | markedly reduce | 1326.3 ± 124.2 | 263.2 ± 59.0 | 86.3 ± 9.4 | significant reduction | reduced; also recorded: did result in a decrease | reduced | 235 ± 49 | 1634 ± 78 | 182 ± 29 |
